Among the test systems are BT-549; COLO 205; HOP-62; HT-29; IGROV-1; KM12; MCF7; MDA-MB-435; MOLT-4; NCI-H226; NCI/ADR-RES; OVCAR-4; RPMI-8226; SF-295; SK-MEL-5; SK-OV-3; SN12C; T47D; UACC-62.
Common to all, as to test: NCI-60 cell line screen, 48 h

SMILES strings stand for the structures.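 Where inhibition never reached the appropriate level, the endpoint shown equals the highest concentration tested. Otherwise, values were interpolated linearly from a five-concentration, 48-hour dose response in 96-well plates. GI50 marks 50% less growth.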 Calls of active or inactive are those of the source. Rule as the data show it: active = GI50 up to about 1.1 µM and inactive = higher.

For the compound `CC(C)(C)n1c(=O)n(C(=O)C(Cl)(Cl)Cl)n(C(=O)C(Cl)(Cl)Cl)c1=O`, the GI50 with BT-549, in the assay with COLO 205, in the assay with HOP-62, in the assay with HT-29, in the assay with IGROV-1 and with KM12 was > 100 µM (inactive) each time. The GI50 in the assay with MCF7, in the assay with MDA-MB-435, with MOLT-4, with NCI-H226, in the assay on NCI/ADR-RES and with OVCAR-4 was > 100 µM (inactive) in each case. For the same compound, the GI50 with RPMI-8226, with SF-295, in the assay with SK-MEL-5, in the assay on SK-OV-3, in the assay on SN12C and in the assay with T47D was > 100 µM (inactive) each time. Besides, the GI50 in the assay with UACC-62 was > 100 µM (inactive).
For the compound `COC(=O)C(Cc1ccccc1)NP(=O)(O)OCC1OC(n2cc(F)c(=O)[nH]c2=O)CC1O` (stereo unspecified), the GI50 with BT-549 is > 100 µM (inactive); with COLO 205 it was 74 µM (inactive); in the assay with HOP-62 it was 2.58 µM (inactive); with HT-29, 11.2 µM (inactive); with IGROV-1, > 22.5 µM (inactive); in the assay on KM12 it was > 100 µM (inactive). Also, the GI50 was 0.317 µM (active) in the assay with MCF7; > 86.3 µM (inactive) in the assay with MDA-MB-435; 4.78 µM (inactive) in the assay on MOLT-4; > 33.4 µM (inactive) in the assay on NCI-H226; 5.7 µM (inactive) with NCI/ADR-RES; > 100 µM (inactive) with OVCAR-4. The GI50 was > 79.6 µM (inactive) with RPMI-8226; 3.72 µM (inactive) in the assay on SF-295; 15.3 µM (inactive) in the assay on SK-MEL-5; 61.4 µM (inactive) in the assay with SK-OV-3; 10.4 µM (inactive) with SN12C; 12.6 µM (inactive) in the assay with T47D. Besides, the GI50 in the assay with UACC-62 is 7 µM (inactive).
Turning to `NS(=O)(=O)c1ccc(/N=N/c2cccnc2O)cc1`, the GI50 with BT-549, with COLO 205, in the assay with HOP-62, in the assay with HT-29, in the assay on IGROV-1 and in the assay on KM12 was > 100 µM (inactive) each time. Also, the GI50 with MCF7, in the assay on MDA-MB-435, in the assay with MOLT-4, with NCI-H226, in the assay with NCI/ADR-RES and in the assay on OVCAR-4 was > 100 µM (inactive) in each case. Moreover, the GI50 in the assay on RPMI-8226, in the assay on SF-295, with SK-MEL-5, in the assay on SK-OV-3, in the assay on SN12C and in the assay on T47D was > 100 µM (inactive) each time. In addition, the GI50 with UACC-62 was > 100 µM (inactive).
On to `O=c1ccc2cc(O)c(O)cc2o1` [ESCULETIN], for which the GI50 with BT-549, in the assay with COLO 205, with HOP-62, with HT-29, in the assay on IGROV-1 and in the assay on KM12 was > 100 µM (inactive) throughout. The GI50 was > 100 µM (inactive) in the assay with MCF7; > 100 µM (inactive) in the assay on MDA-MB-435; > 100 µM (inactive) in the assay with MOLT-4; > 100 µM (inactive) in the assay on NCI-H226; > 100 µM (inactive) with NCI/ADR-RES; 97.3 µM (inactive) with OVCAR-4. The GI50 in the assay with RPMI-8226 is > 100 µM (inactive); in the assay on SF-295, > 100 µM (inactive); with SK-MEL-5 it was > 100 µM (inactive); in the assay on SK-OV-3 it was > 100 µM (inactive); with SN12C it was > 100 µM (inactive); in the assay with T47D, > 41.8 µM (inactive). Also, in the assay on UACC-62, the GI50 was > 100 µM (inactive).

Source of the values: ChEMBL document CHEMBL1201862, “PubChem BioAssay data set” (2004).
